Patent publication US20260285853A1, “COMPOUNDS AND METHODS FOR MODULATING SPLICING” (REMIX THERAPEUTICS INC., priority 2023, published 2026)
Counter-ions that a name gives are not always drawn. Like-named read-outs stand apart in the source and are kept apart here.

Experiments:
Type in all cases: cell-based
[1] = test system: MYB mRNA; assay: Gene panel canonical junction qPCR assay, decrease in CJ mRNA, Table 3
Summary of the method: (§1)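 A673 cells were plated, left to adhere for 24 h, then dosed; K562 cells were plated in 96- or 384-well format and dosed directly. Both were incubated 24 h at 37 °C with an 11-point 3-fold series (top 10 uM final). Canonical junction mRNA was then read by cDNA synthesis and qPCR.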

[2] = test system: HTT mRNA; assay: as above
Summary of the method: as §1

[3] = test system: MYB mRNA; assay: Splicing RT-qPCR assay (THP), Table 2A
[4] = test system: HTT mRNA; assay: Splicing RT-qPCR assay (THP), Table 2A
[5] = test system: SH-SY5Y (human neuroblastoma) cells; assay: Cell viability, Cell Titer Glo 2.0 assay; conditions: read-out: Viability SHSY5Y.3 GI50
Summary of the method: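 SH-SY5Y neuroblastoma cells are exposed to test compounds for 72 hours at 37 °C and 5% CO2, with final DMSO held at 0.1%. Cell viability is then measured with the CellTiter-Glo 2.0 assay.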

[6] = decrease in canonical junction (CJ) mRNA, gene panel qPCR, Table 3
[7] = Table 2A (THP), AJ mRNA increase, read-out: MYB AJ (increase in alternative junction mRNA, AC50)
[8] = Table 2A (THP), CJ mRNA decrease, read-out: MYB CJ (decrease in canonical junction mRNA, IC50)
[9] = Table 2A (THP), AJ mRNA increase, read-out: HTT AJ (increase in alternative junction mRNA, AC50)
[10] = Table 2A (THP), CJ mRNA decrease, read-out: HTT CJ (decrease in canonical junction mRNA, IC50)
[11] = decrease in CJ mRNA levels, canonical junction qPCR, gene panel
[12] = Table 2A, THP, MYB alternative junction (AJ) mRNA, read-out: MYB AJ (AC50, increase in alternative junction mRNA)
[13] = Table 2A, THP, MYB canonical junction (CJ) mRNA, read-out: MYB CJ (IC50, decrease in canonical junction mRNA)
[14] = Table 2A, THP, HTT alternative junction (AJ) mRNA, read-out: HTT AJ (AC50, increase in alternative junction mRNA)
[15] = Table 2A, THP, HTT canonical junction (CJ) mRNA, read-out: HTT CJ (IC50, decrease in canonical junction mRNA)

Row | IC50 [1, 6] | IC50 [2, 6] | IC50 [3, 8] | IC50 [4, 10] | GI50 [5] | IC50 [1, 11] | IC50 [2, 11] | IC50 [3, 13] | IC50 [4, 15] | Compound | AC50 [3, 7] | AC50 [4, 9] | AC50 [3, 12] | AC50 [4, 14]
1 | 1000 to 10000 nM | 1000 to 10000 nM | 1000 to 10000 nM | 1000 to 10000 nM | 1000 to 10000 nM | – | – | – | – | Cc1cc2sc(NC(=O)c3ccc(N4CCC(NC5CC5)CC4)c4cn(C)nc34)cc2c(C)n1 [Compound 559, 4-[4-(cyclopropylamino)-1-piperidyl]-N-(4,6-dimethyl-thieno[3,2-c]-pyridin-2-yl)-2-methyl-indazole-7-carboxamide] | 1000 to 10000 nM | 1000 to 10000 nM | – | –
2 | 100 to 1000 nM | 100 to 1000 nM | 100 to 1000 nM | 100 to 1000 nM | 100 to 1000 nM | – | – | – | – | CNCC1CCN(c2ccc(C(=O)Nc3cn4cc(C)nc(C)c4n3)c3nn(C)cc23)C1 (stereo not drawn) [Compound 527] | 100 to 1000 nM | 100 to 1000 nM | – | –
3 | > 10000 nM | 1000 to 10000 nM | > 10000 nM | 1000 to 10000 nM | > 10000 nM | – | – | – | – | Cn1cc2c(N3CCC(NC4CC4)CC3)cc(F)c(C(=O)Nc3cccnc3O)c2n1 [Compound 411, 4-[4-(cyclopropylamino)-1-piperidyl]-6-fluoro-N-(2-hydroxy-3-pyridyl)-2-methyl-indazole-7-carboxamide] | > 10000 nM | > 10000 nM | – | –
4 | 100 to 1000 nM | 1000 to 10000 nM | 100 to 1000 nM | 1000 to 10000 nM | 1000 to 10000 nM | – | – | – | – | Cc1cn2cc(NC(=O)c3ccc(N4CCC(N[C@@H]5C[C@H]5O)CC4)c4cn(C)nc34)cc(F)c2n1 [Compound 370, N-(8-fluoro-2-methylimidazo[1,2-a]pyridin-6-yl)-4-(4-(((1R,2R)-2-hydroxycyclopropyl)amino)piperidin-1-yl)-2-methyl-2H-indazole-7-carboxamide hydrochloride] | < 100 nM | 1000 to 10000 nM | – | –
5 | – | – | – | – | 1000 to 10000 nM | 100 to 1000 nM | 1000 to 10000 nM | 100 to 1000 nM | 1000 to 10000 nM | C=CCNC1CCN(c2ccc(C(=O)Nc3cc(CNC(=O)OC)c4nn(C)cc4c3)c3nn(C)cc23)CC1 [Compound 833] | – | – | 100 to 1000 nM | 1000 to 10000 nM
6 | > 10000 nM | > 10000 nM | > 10000 nM | > 10000 nM | > 10000 nM | – | – | – | – | CNC1CCN(c2ccc(NC(=O)c3cc4cn(C)nc4cc3OC)c3nn(C)cc23)CC1 [Compound 521, 6-methoxy-2-methyl-N-[2-methyl-4-[4-(methylamino)-1-piperidyl]indazol-7-yl]-indazole-5-carboxamide] | > 10000 nM | > 10000 nM | – | –
7 | – | – | – | – | 100 to 1000 nM | < 100 nM | 1000 to 10000 nM | < 100 nM | 1000 to 10000 nM | COc1nc2c(C(=O)Nc3cn4cc(C)nc4c(OC)n3)ccc(N3C[C@H](C)N[C@@H](C)C3)c2s1 [Compound 759, 7-((3S,5S)-3,5-dimethylpiperazin-1-yl)-2-methoxy-N-(8-methoxy-2-methylimidazo[1,2-a]pyrazin-6-yl)benzo[d]thiazole-4-carboxamide 2,2,2-trifluoroacetate] | – | – | < 100 nM | 1000 to 10000 nM
8 | – | – | – | – | > 10000 nM | > 10000 nM | > 10000 nM | > 10000 nM | > 10000 nM | COc1cc2nn(C)cc2cc1NC(=O)c1c(F)cc(N2CCC(NC3CC3)CC2)c2cc(C)nn12 [Compound 624, 4-[4-(cyclopropylamino)-1-piperidyl]-6-fluoro-N-(6-methoxy-2-methyl-indazol-5-yl)-2-methyl-pyrazolo[1,5-a]pyridine-7-carboxamide] | – | – | > 10000 nM | > 10000 nM
9 | – | – | – | – | > 10000 nM | > 10000 nM | > 10000 nM | > 10000 nM | > 10000 nM | Cc1cn2cc(NC(=O)c3ccc(NC(=O)c4ncc[nH]4)c4[nH]cnc34)cc(F)c2n1 [Compound 610, 2,2,2-trifluoroacetate] | – | – | > 10000 nM | > 10000 nM
10 | > 10000 nM | 1000 to 10000 nM | > 10000 nM | 1000 to 10000 nM | 1000 to 10000 nM | – | – | – | – | CNC1CCC(Oc2ccc(C(=O)Nc3cc4cn(C)nc4cc3OC)c3nn(C)cc23)CC1 (stereo not drawn) [Compound 595] | > 10000 nM | > 10000 nM | – | –
11 | < 100 nM | 100 to 1000 nM | < 100 nM | 100 to 1000 nM | 100 to 1000 nM | – | – | – | – | Cc1cn2cc(NC(=O)c3ccc(N4CCC(NC5(C)CC5)CC4)c4cn(C)nc34)cc(F)c2n1 [Compound 355, N-(8-fluoro-2-methyl-imidazo[1,2-a]-pyridin-6-yl)-2-methyl-4-[4-[(1-methyl-cyclopropyl)amino]-1-piperidyl]indazole-7-carboxamide] | < 100 nM | 100 to 1000 nM | – | –
12 | 1000 to 10000 nM | 1000 to 10000 nM | 1000 to 10000 nM | 1000 to 10000 nM | 1000 to 10000 nM | – | – | – | – | COc1cc2nn(C)cc2cc1NC(=O)c1ccc(N2CCC(NC3CC3)CC2)c2c(CO)n(C)nc12 [Compound 522, 4-[4-(cyclopropylamino)-1-piperidyl]-3-(hydroxymethyl)-N-(6-methoxy-2-methyl-indazol-5-yl)-2-methyl-indazole-7-carboxamide] | 1000 to 10000 nM | 1000 to 10000 nM | – | –
13 | 100 to 1000 nM | 100 to 1000 nM | 100 to 1000 nM | 100 to 1000 nM | 100 to 1000 nM | – | – | – | – | CNCC1CCN(c2ccc(C(=O)Nc3cn4cc(C)nc(C)c4n3)c3nn(C)cc23)CC1 [Compound 532] | 100 to 1000 nM | 100 to 1000 nM | – | –
14 | > 10000 nM | > 10000 nM | > 10000 nM | > 10000 nM | > 10000 nM | – | – | – | – | COc1cc2nn(C)cc2cc1NC(=O)c1ccc(N2CC(C3CNC3)C2)c2cn(C)nc12 [Compound 509] | > 10000 nM | > 10000 nM | – | –
15 | – | – | – | – | 100 to 1000 nM | 100 to 1000 nM | 100 to 1000 nM | 100 to 1000 nM | 100 to 1000 nM | Cc1cn2cc(NC(=O)c3ccc(N4CCC(NC5CC5)CC4)c4cn(C)nc34)nc2c(CO)n1 [Compound 846, 4-[4-(cyclopropylamino)-1-piperidyl]-N-[8-(hydroxymethyl)-6-methyl-imidazo[1,2-a]pyrazin-2-yl]-2-methyl-indazole-7-carboxamide] | – | – | 100 to 1000 nM | 100 to 1000 nM
16 | – | – | – | – | 100 to 1000 nM | 100 to 1000 nM | 100 to 1000 nM | 100 to 1000 nM | 100 to 1000 nM | C[C@H]1CN(c2ccc(C(=O)Nc3cc(F)c4nn(C)cc4c3)c3nc(CNS(C)(=O)=O)sc23)C[C@H](C)N1 [Compound 706, 7-[(3S,5S)-3,5-dimethylpiperazin-1-yl]-N-(7-fluoro-2-methyl-indazol-5-yl)-2-(methanesulfonamidomethyl)-1,3-benzothiazole-4-carboxamide] | – | – | < 100 nM | 100 to 1000 nM
17 | > 10000 nM | > 10000 nM | – | – | > 10000 nM | – | – | > 10000 nM | > 10000 nM | COc1cc2nn(C)cc2cc1NC(=O)c1ccc(N2CCCC(OC3CNC3)C2)c2cn(C)nc12 (stereo not drawn) [Compound 602] | – | – | > 10000 nM | > 10000 nM
18 | – | – | – | – | 1000 to 10000 nM | > 10000 nM | > 10000 nM | > 10000 nM | > 10000 nM | Cc1cn2cc(NC(=O)c3ccc(N4CCC(NC5CC5)CC4)c4cn(C)nc34)nc2c(CN2CCCCS2(=O)=O)n1 [Compound 795] | – | – | > 10000 nM | > 10000 nM
